According to ChEMBL document CHEMBL4229327, “Chemical Approaches to Modulating Complement-Mediated Diseases” (J Med Chem, 2018):
Peptide text beside a SMILES is read from it.

What was measured:
Complement C2 [1] = molecular target: T1, Complement C2 (Homo sapiens, UniProt P06681); assay: Competitive/reversible inhibition of human C2 using Ac-SHLGLAR-pNA as substrate
T1 sequence (P06681 whole entry): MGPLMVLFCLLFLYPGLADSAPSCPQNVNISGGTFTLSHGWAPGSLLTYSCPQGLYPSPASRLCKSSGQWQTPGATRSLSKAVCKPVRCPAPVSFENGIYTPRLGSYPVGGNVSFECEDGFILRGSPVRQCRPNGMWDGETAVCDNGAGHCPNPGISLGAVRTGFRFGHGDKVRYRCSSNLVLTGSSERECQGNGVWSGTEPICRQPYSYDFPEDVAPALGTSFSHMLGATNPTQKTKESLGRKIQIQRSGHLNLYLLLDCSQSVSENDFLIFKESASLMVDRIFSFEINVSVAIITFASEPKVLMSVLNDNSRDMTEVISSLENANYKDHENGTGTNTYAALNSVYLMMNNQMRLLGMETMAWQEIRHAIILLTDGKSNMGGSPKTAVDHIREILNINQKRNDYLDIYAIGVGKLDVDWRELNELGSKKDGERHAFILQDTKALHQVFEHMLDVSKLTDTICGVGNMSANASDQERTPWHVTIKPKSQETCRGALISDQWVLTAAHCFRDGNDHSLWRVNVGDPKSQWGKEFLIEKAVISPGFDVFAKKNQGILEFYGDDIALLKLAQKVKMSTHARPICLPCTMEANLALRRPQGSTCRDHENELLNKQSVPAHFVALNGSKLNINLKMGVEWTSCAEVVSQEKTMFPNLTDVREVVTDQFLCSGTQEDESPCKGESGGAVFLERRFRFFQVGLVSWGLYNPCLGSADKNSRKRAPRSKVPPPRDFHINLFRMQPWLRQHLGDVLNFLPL

Complement C2 [2] = molecular target: T1, Complement C2; assay: Inhibition of C2-mediated MAC formation in human serum by ELISA
Complement C2 [3] = molecular target: T1, Complement C2; assay: Inhibition of human C2-mediated C3 processing after 24 hrs by SDS-PAGE
[4] = molecular target: T2, Mannan-binding lectin serine protease 2 (Homo sapiens, UniProt O00187); assay: Inhibition of MASP2 (unknown origin)-induced lectin pathway by ELISA
T2 sequence (O00187 16-444 limits assumed): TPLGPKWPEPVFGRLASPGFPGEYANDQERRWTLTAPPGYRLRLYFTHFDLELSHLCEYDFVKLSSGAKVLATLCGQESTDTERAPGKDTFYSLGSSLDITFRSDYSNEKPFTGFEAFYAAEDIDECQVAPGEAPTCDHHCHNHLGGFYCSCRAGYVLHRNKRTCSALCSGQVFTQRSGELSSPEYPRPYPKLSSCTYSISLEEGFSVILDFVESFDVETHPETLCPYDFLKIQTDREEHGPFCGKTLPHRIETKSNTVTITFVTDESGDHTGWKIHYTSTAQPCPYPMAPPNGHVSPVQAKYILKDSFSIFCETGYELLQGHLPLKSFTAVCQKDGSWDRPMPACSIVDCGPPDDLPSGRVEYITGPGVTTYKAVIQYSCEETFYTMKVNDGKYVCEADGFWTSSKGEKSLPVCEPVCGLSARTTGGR
T2 sequence (O00187 445-686 limits assumed): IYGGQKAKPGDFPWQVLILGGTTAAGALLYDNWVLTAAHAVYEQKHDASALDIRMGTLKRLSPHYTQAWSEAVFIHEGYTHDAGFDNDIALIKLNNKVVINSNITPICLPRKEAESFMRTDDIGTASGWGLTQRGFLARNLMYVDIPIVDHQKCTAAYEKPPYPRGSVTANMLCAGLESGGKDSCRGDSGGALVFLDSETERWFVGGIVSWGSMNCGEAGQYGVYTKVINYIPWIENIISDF

[5] = molecular target: T2, Mannan-binding lectin serine protease 2; assay: Inhibition of recombinant […] fragment of MASP-2 (unknown origin)
[6] = molecular target: T3, C3a anaphylatoxin chemotactic receptor (Homo sapiens, UniProt Q16581); assay: Agonist activity at C3aR in HMDM assessed as induction of Ca2+ release; type: functional
T3 sequence (Q16581 whole entry): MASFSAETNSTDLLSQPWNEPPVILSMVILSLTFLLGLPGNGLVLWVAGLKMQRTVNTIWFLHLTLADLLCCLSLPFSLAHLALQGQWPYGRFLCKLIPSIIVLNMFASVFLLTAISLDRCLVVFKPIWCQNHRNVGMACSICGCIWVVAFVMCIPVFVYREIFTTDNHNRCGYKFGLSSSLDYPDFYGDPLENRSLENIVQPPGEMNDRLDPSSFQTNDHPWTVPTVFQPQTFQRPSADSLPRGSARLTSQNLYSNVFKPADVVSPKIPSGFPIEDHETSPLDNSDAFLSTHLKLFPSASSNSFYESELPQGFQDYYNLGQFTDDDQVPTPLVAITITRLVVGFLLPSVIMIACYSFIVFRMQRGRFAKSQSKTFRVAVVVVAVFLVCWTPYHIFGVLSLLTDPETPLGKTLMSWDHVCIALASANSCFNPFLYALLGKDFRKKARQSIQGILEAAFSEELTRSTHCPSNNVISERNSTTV

[7] = molecular target: T3, C3a anaphylatoxin chemotactic receptor; assay: Antagonist activity at C3aR in HMDM assessed as inhibition of agonist-induced Ca2+ release; type: functional
[8] = Inhibition of factor D in […]-activated cat serum assessed as decrease in human erythrocyte lysis; conditions: Felis catus
[9] = Inhibition of factor D in […]-activated dog serum assessed as decrease in human erythrocyte lysis; conditions: Canis lupus familiaris
[10] = molecular target: T3, C3a anaphylatoxin chemotactic receptor; assay: Displacement of 125I-C3a from recombinant human C3aR expressed in HEK293 cell membranes after 3 hrs by scintillation proximity assay
Complement factor D [11] = molecular target: T4, Complement factor D (Homo sapiens, UniProt P00746)
T4 sequence (P00746 whole entry): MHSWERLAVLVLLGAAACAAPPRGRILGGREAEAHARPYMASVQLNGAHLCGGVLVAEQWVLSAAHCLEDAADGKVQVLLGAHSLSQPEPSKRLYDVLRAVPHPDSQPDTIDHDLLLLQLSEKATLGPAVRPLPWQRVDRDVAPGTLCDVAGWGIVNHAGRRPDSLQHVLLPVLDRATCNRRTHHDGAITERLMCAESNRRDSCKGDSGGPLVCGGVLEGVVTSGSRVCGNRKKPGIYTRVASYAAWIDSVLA
Description: Inhibition of factor D in human serum assessed as decrease in C3 deposition on PNH erythrocytes

Integrin alpha-M/beta-2 [12] = molecular target: T5, Integrin alpha-M/beta-2 (Homo sapiens, UniProt P05107+P11215); assay: Inhibition of C3bi-AP binding to CR3 derived from human PMN; type: protein-complex assay
T5 sequence (P05107 23-769 limits assumed, other chains not shown): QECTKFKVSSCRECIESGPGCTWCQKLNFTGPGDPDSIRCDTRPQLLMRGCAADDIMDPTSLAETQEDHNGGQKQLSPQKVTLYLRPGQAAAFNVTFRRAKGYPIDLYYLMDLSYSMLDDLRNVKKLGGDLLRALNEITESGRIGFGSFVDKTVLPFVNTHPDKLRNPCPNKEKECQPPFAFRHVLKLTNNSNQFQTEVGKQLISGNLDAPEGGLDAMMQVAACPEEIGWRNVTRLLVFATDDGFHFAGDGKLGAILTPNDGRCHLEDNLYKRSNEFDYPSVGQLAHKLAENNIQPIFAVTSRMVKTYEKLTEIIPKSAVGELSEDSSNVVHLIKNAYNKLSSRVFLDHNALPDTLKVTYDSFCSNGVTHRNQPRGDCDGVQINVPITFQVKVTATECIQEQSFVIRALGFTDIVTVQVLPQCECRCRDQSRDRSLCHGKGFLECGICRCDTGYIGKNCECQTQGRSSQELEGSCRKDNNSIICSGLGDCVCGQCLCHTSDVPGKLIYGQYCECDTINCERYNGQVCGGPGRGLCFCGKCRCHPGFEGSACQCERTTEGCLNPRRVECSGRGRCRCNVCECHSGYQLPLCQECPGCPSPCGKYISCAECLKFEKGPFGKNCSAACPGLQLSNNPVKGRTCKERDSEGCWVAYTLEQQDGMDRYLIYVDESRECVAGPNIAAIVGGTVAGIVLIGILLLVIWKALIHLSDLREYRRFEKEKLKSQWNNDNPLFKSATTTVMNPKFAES

Integrin alpha-M/beta-2 [13] = molecular target: T5, Integrin alpha-M/beta-2; assay: Antagonist activity at CR3 in carboxyfluorescein diacetate succiminidyl ester-labeled human PMN assessed as inhibition of TNF/PMA-stimulated adhesion of PMN to fibrinogen preincubated for 10 mins followed by TNF/PMA addition by fluorescence assay; type: protein-complex assay
Complement factor B = Complement factor B (Homo sapiens, UniProt P00751); assay: Displacement of Cy5 from recombinant human biotin-labeled factor B expressed in drosophila cells after 2 hrs by TR-FRET assay; type: cell-based
Chain of Complement factor B (P00751 whole entry): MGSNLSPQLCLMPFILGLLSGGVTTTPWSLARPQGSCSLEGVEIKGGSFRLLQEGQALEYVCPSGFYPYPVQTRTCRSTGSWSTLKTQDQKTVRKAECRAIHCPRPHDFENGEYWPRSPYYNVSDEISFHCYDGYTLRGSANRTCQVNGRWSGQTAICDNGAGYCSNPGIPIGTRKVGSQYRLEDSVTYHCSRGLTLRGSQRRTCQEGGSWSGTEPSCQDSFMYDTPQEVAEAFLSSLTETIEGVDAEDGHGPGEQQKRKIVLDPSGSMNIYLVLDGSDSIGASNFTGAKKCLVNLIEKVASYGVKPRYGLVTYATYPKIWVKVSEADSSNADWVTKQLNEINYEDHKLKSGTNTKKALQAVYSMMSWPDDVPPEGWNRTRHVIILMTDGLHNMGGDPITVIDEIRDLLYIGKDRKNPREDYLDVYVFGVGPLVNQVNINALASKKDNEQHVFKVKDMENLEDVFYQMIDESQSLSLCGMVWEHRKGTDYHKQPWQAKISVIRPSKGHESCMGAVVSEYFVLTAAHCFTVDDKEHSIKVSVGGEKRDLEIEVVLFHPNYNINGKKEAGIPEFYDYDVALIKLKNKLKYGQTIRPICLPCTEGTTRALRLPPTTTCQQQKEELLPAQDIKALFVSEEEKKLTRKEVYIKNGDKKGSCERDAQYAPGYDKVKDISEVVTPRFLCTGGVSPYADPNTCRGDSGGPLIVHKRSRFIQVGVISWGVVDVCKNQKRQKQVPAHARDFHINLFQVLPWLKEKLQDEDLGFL

[14] = Oral bioavailability in Wistar rat at 10 mg/kg; type: ADME, organism-based; conditions: in vivo
[15] = Half life in Wistar rat at 10 mg/kg, po or 1 mg/kg, iv; type: ADME, organism-based; conditions: in vivo
[16] = molecular target: T3, C3a anaphylatoxin chemotactic receptor; assay: Displacement of 125I-C3a from human C3aR expressed in RBL-2H3 cells; type: cell-based
[17] = molecular target: T3, C3a anaphylatoxin chemotactic receptor; assay: Antagonist activity at human C3aR expressed in RBL-2H3 cells assessed as inhibition of C3a-induced intracellular calcium mobilization; type: functional, cell-based
Complement factor D [18] = molecular target: T4, Complement factor D; assay: Displacement of Cy5 from recombinant human biotin labeled factor D expressed in Escherichia coli after 2 hrs by TR-FRET assay
[19] = molecular target: T6, C5a anaphylatoxin chemotactic receptor 1 (Homo sapiens, UniProt P21730); assay: Antagonist activity at recombinant human C5aR1 expressed in Sf9 insect cell membranes co-expressing G-alphai2,G-beta1 and G-gamma2 assessed as inhibition of recombinant human C5a-induced [35S]GTPgammaS binding after 60 mins by liquid scintillation spectrometry; type: functional
T6 sequence (P21730 whole entry): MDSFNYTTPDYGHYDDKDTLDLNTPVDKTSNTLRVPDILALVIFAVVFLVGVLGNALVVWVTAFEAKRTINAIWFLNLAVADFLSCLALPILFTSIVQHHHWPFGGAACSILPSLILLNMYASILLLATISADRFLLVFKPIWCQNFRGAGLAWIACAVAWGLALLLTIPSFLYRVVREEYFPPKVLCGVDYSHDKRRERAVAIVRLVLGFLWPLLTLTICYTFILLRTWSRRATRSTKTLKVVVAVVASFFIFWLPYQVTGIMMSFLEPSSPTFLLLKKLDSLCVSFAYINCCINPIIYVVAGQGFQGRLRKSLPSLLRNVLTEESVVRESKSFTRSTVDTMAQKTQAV

[20] = molecular target: T7, Mannan-binding lectin serine protease 1 (Homo sapiens, UniProt P48740); assay: Inhibition of MASP-1-mediated C3 deposition in human serum after 30 mins by ELISA
T7 sequence (P48740 whole entry): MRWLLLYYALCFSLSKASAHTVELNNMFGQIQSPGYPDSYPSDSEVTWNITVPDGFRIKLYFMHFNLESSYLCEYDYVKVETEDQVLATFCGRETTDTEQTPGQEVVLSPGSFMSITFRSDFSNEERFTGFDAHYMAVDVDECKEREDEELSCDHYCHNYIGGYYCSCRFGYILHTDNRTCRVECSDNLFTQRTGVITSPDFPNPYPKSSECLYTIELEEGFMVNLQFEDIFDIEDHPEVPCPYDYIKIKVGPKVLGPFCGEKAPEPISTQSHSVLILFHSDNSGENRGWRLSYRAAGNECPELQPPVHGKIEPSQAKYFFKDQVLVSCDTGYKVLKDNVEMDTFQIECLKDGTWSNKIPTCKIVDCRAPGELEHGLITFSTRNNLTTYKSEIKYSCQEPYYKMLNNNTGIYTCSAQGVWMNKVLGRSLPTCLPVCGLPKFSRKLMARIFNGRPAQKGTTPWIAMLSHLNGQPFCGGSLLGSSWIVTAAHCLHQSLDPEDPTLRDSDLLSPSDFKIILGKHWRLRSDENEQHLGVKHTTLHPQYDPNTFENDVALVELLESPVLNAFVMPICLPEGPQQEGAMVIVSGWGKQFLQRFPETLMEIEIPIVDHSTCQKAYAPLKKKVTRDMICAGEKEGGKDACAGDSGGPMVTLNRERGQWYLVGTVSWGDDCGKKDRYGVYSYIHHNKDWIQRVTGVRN

[21] = molecular target: T2, Mannan-binding lectin serine protease 2; assay: Inhibition of MASP-2-mediated C4 deposition in human serum after 1 hr by ELISA
[22] = molecular target: T2, Mannan-binding lectin serine protease 2; assay: Inhibition of MASP-2 (unknown origin) using Z-L-LysSBzl hydrochloride as substrate preincubated for 1 hr followed by substrate addition
Complement C3 = Complement C3 (Homo sapiens, UniProt P01024); assay: Inhibition of C3 in human serum by ELISA
Chain of Complement C3 (P01024 23-667 limits assumed): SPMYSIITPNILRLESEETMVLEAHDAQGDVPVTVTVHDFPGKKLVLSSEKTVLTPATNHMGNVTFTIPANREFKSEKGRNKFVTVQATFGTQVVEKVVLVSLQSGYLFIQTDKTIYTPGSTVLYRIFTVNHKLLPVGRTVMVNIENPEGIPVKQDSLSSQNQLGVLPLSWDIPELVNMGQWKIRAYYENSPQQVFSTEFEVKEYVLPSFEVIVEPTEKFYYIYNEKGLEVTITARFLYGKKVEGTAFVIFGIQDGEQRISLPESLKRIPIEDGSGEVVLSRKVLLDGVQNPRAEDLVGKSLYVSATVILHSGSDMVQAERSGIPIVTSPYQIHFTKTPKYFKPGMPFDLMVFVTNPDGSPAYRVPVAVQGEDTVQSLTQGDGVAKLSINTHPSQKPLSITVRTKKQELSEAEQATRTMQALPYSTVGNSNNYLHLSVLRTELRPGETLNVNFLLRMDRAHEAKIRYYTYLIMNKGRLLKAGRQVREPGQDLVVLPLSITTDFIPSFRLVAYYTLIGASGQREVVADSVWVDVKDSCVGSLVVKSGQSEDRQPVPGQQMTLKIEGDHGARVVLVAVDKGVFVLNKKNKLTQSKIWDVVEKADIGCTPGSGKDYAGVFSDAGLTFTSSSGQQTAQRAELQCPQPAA
Chain of Complement C3 (P01024 672-1663 limits assumed): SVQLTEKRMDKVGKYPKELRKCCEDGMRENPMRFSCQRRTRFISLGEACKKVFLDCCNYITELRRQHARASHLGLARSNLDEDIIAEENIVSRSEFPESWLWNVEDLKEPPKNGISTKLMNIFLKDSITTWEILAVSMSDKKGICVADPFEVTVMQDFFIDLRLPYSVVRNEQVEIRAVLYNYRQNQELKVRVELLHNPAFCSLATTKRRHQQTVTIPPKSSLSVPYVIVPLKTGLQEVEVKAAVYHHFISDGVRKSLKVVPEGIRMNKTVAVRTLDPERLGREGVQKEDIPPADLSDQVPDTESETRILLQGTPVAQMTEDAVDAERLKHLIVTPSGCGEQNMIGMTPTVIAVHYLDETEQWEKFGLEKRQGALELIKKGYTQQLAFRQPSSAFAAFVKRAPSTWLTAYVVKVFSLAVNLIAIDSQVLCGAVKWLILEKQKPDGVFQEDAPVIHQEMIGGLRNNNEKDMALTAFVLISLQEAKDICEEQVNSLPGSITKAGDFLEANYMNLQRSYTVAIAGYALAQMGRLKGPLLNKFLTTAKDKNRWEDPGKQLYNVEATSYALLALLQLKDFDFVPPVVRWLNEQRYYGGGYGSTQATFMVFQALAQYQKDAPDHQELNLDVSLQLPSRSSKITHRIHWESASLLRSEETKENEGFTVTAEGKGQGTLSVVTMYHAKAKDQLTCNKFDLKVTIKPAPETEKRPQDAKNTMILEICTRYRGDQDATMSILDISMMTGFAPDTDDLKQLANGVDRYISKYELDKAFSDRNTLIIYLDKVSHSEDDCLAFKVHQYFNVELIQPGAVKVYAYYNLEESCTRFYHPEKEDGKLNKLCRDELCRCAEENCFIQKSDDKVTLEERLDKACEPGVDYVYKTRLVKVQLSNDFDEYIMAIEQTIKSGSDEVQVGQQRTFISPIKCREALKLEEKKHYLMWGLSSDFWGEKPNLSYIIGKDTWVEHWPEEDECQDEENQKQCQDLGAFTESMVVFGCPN

CC(=O)N[C@@H](CCCNC(=N)N)C(=O)N[C@@H](CC(C)C)C(=O)N[C@@H](CC(C)C)C(=O)N[C@@H](CC(C)C)C(=O)N[C@@H](C)C(=O)N[C@H](C=O)CCCNC(=N)N (Ac-RLLLAR-aldehyde)
IC50 (Complement C2 [1]): 330 nM | IC50 (Complement C2 [2]): 7300 nM | IC50 (Complement C2 [3]): 500 to 1000 nM

CC(C)C[C@H](NC(=O)[C@H](CCCCN)NC(=O)[C@@H](NC(=O)[C@H](CS)NC(=O)[C@@H](NC(=O)[C@H](C)NC(=O)[C@H](CO)NC(=O)[C@H](CCCCN)NC(=O)CNC(=O)[C@H](CC(=O)O)NC(=O)[C@H](CO)NC(=O)CNC(=O)[C@H](CS)NC(=O)[C@H](CCCNC(=N)N)NC(=O)[C@H](CS)NC(=O)[C@@H](NC(=O)[C@H](CC(N)=O)NC(=O)[C@H](CS)NC(=O)[C@H](CCCCN)NC(=O)[C@H](CC(=O)O)NC(=O)[C@H](CCCCN)NC(=O)[C@H](Cc1ccccc1)NC(=O)[C@@H](NC(=O)[C@@H](NC(=O)CNC(=O)[C@@H]1CCCN1C(=O)[C@H](CCC(=O)O)NC(=O)[C@H](CS)NC(=O)[C@@H](NC(=O)[C@@H](NC(=O)[C@@H](N)CCC(=O)O)C(C)C)[C@@H](C)O)[C@@H](C)O)[C@@H](C)O)[C@@H](C)O)C(C)C)[C@@H](C)O)C(=O)N[C@@H](Cc1c[nH]c2ccccc12)C(=O)N[C@@H](CS)C(=O)N[C@@H](CC(N)=O)C(=O)N[C@@H](CCC(N)=O)C(=O)O (H-EVTCEPGTTFKDKCNTCRCGSDGKSAVCTKLWCNQ-OH)
IC50 [4]: 66 nM | Ki [5]: 6 nM

N=C(N)NCCC[C@H](Nc1nccc2[nH]c(C(c3ccccc3)c3ccccc3)nc12)C(=O)O
EC50 [6]: 15 nM

N=C(N)NCCC[C@@H](C(=O)O)N1Cc2nc(C(c3ccccc3)c3ccccc3)sc2C1=O
IC50 [7]: 320 nM

CC(=O)Oc1ccc(-c2ccc(OC(C)=O)c(C(=O)O)c2)cc1C(=O)O
IC50 [8]: 100 nM | IC50 [9]: 100 nM

N=C(N)NCCC[C@H](NC(=O)c1cccn(Cc2ccccc2Br)c1=O)C(=O)O
IC50 [10]: 50 nM

CC(=O)c1nn(CC(=O)N2C[C@H](F)C[C@H]2C(=O)Nc2cccc(Br)n2)c2ccc(-c3cnc(C)nc3)cc12
IC90 (Complement factor D [11]): 89 nM

CC[n+]1c(/C=C/C=C/N2CCCc3ccccc32)sc2ccc3ccccc3c21
IC50 (Integrin alpha-M/beta-2 [12]): 140 nM | IC50 (Integrin alpha-M/beta-2 [13]): 2500 to 10000 nM

COc1cc(C)c2[nH]ccc2c1C(C)(C)c1nc2cc(C#N)cnc2[nH]1
IC50 (Complement factor B): 30 nM

COc1ccc2c(c1)C(C(=O)N(Cc1ccc(N(C)C)cc1)c1ccc(C(C)C)cc1)CCC2 (stereo unspecified)
bioavailability [14]: 70% | half-life [15]: 1 to 3 h

N=C(N)NCCC[C@H](NC(=O)COCC(c1ccccc1)c1ccccc1)C(=O)O
IC50 [16]: 200 nM | IC50 [17]: 28 nM

Cn1cc(-c2cc(COc3ccccc3CC(=O)O)cc(-c3cccc(CC(N)=O)c3F)c2)cn1
IC50 (Complement factor D [18]): 23 nM

C[C@@H](C(=O)N(Cc1ccccc1F)C1Cc2ccccc2C1)N1CCc2ccccc2[C@@H]1c1cccc2ccccc12
Ki [19]: 15.2 nM

CCN1/C(=C/C=C/c2sc3ccccc3[n+]2CC)Sc2ccccc21
IC50 (Integrin alpha-M/beta-2 [12]): 330 nM | IC50 (Integrin alpha-M/beta-2 [13]): 2500 to 10000 nM

CC[C@H](C)[C@H](NC(=O)[C@H](CS)NC(=O)[C@@H](NC(=O)[C@@H]1CCCN1C(=O)[C@@H]1CCCN1C(=O)[C@H](Cc1ccc(O)cc1)NC(=O)[C@H](CO)NC(=O)[C@H](CCCNC(=N)N)NC(=O)[C@H](CO)NC(=O)[C@H](CS)NC(=O)[C@H](Cc1ccc(O)cc1)NC(=O)CN)C(C)C)C(=O)N1CCC[C@H]1C(=O)N[C@@H](CC(=O)O)C(=O)O (H-GYCSRSYPPVCIPD-OH)
IC50 [20]: 220 nM | IC50 [21]: 2700 nM | Ki [22]: 180 nM

CC(=O)N[C@@H](Cc1ccccc1)C(=O)N[C@H]1CCCNC(=O)[C@H](CCCNC(=N)N)NC(=O)[C@H](Cc2c[nH]c3ccccc23)NC(=O)[C@@H](CC2CCCCC2)NC(=O)[C@@H]2CCCN2C1=O
bioavailability [14]: ≤ 2% | half-life [15]: 20 h

CCc1cccc(CC)c1-c1cc(OC(C)C)c2c(n1)CCCC2Nc1ccccc1CCO (stereo unspecified)
half-life [15]: 1 to 3 h

CC(=O)Oc1ccc(Cc2ccc(OC(C)=O)c(C(=O)O)c2)cc1C(=O)O
IC50 [8]: 100 nM | IC50 [9]: 100 nM

CC[C@H](C)[C@H](NC(C)=O)C(=O)N[C@H]1CSSC[C@@H](C(=O)N(C)[C@H](C(N)=O)[C@@H](C)CC)NC(=O)[C@H](CCCNC(=N)N)NC(=O)[C@H](Cc2c[nH]cn2)NC(=O)[C@H](C)NC(=O)CN(C)C(=O)[C@H](Cc2c[nH]c3ccccc23)NC(=O)[C@H](CC(=O)O)NC(=O)[C@H](CCC(N)=O)NC(=O)[C@H](Cc2cn(C)c3ccccc23)NC(=O)[C@H](C(C)C)NC1=O
IC50 (Complement C3): 62 nM
